Source: patent US10689367B2, “Triazole pyridyl compounds as agonists of the APJ receptor” (AMGEN INC., priority 2016, dated 2020)

Target: human APJ receptor (Homo sapiens (Human), UniProt P35414)
Experiment: [35S]GTPγS binding assay on membranes from CHO cells stably expressing human APJ receptor
Assay type: biochemical
Conditions: membranes of CHO cells stably expressing human APJ receptor, read-out: Activity hAPJ SPA EC50 IP
Procedure, shortened: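 [35S]GTPγS binding measured on membranes from CHO cells stably expressing FLAG-tagged human APJ, with GDP, MgCl2 and NaCl levels optimized beforehand. Incubation 90 min at RT, imager read-out; EC50 from non-linear regression, averaged over several independent experiments.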

Chain of human APJ receptor (P35414 whole entry): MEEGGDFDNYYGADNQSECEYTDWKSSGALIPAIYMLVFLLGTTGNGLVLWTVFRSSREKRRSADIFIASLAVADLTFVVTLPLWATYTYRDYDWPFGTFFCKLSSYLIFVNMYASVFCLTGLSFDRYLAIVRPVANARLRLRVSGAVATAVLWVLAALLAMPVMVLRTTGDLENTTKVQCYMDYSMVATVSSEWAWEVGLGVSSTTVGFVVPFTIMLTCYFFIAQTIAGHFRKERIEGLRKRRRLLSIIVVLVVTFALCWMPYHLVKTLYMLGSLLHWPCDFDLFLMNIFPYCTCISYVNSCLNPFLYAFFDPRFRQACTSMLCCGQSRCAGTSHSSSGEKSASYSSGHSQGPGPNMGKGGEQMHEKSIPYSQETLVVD

| SMILES | EC50 |
| --- | --- |
| COc1cccc(-c2nnc(NS(=O)(=O)[C@@H](C)[C@H](OC)c3ncc(Cl)cn3)n2[C@H](C)c2cnn(C)c2)n1 (single isomer, unassigned) [Example 338.0, (1R,2S)-1-(5-chloropyrimidin-2-yl)-1-methoxy-N-(5-(6-methoxypyridin-2-yl)-4-((R)-1-(1-methyl-1H-pyrazol-4-yl)ethyl)-4H-1,2,4-triazol-3-yl)propane-2-sulfonamide or (1R,2S)-1-(5-chloropyrimidin-2-yl)-1-methoxy-N-(5-(6-methoxypyridin-2-yl)-4-((S)-1-(1-methyl-1H-pyrazol-4-yl)ethyl)-4H-1,2,4-triazol-3-yl)propane-2-sulfonamide] | 0.56 nM |
| COc1cccc(-c2nnc(NS(=O)(=O)[C@@H](C)[C@H](OC)c3ncc(Cl)cn3)n2[C@H](C)c2cnn(C)c2)n1 (single isomer, unassigned) [Example 339.0, (1R,2S)-1-(5-chloropyrimidin-2-yl)-1-methoxy-N-(5-(6-methoxypyridin-2-yl)-4-((R)-1-(1-methyl-1H-pyrazol-4-yl)ethyl)-4H-1,2,4-triazol-3-yl)propane-2-sulfonamide or (1R,2S)-1-(5-chloropyrimidin-2-yl)-1-methoxy-N-(5-(6-methoxypyridin-2-yl)-4-((S)-1-(1-methyl-1H-pyrazol-4-yl)ethyl)-4H-1,2,4-triazol-3-yl)propane-2-sulfonamide] | 3.1 nM |
| COc1cccc(-c2nnc(NS(=O)(=O)[C@@H](C)[C@H](OC)c3ncc(Cl)cn3)n2[C@H](C)c2cc(F)cc(F)c2)n1 (single isomer, unassigned) [Example 340.0, (1R,2S)-1-(5-chloropyrimidin-2-yl)-N-(4-((R)-1-(3,5-difluorophenyl)ethyl)-5-(6-methoxypyridin-2-yl)-4H-1,2,4-triazol-3-yl)-1-methoxypropane-2-sulfonamide or (1R,2S)-1-(5-chloropyrimidin-2-yl)-N-(4-((S)-1-(3,5-difluorophenyl)ethyl)-5-(6-methoxypyridin-2-yl)-4H-1,2,4-triazol-3-yl)-1-methoxypropane-2-sulfonamide] | 0.18 nM |
| COc1cccc(-c2nnc(NS(=O)(=O)[C@@H](C)[C@H](OC)c3ncc(Cl)cn3)n2[C@H](C)c2cc(F)cc(F)c2)n1 (single isomer, unassigned) [Example 341.0, (1R,2S)-1-(5-chloropyrimidin-2-yl)-N-(4-((R)-1-(3,5-difluorophenyl)ethyl)-5-(6-methoxypyridin-2-yl)-4H-1,2,4-triazol-3-yl)-1-methoxypropane-2-sulfonamide or (1R,2S)-1-(5-chloropyrimidin-2-yl)-N-(4-((S)-1-(3,5-difluorophenyl)ethyl)-5-(6-methoxypyridin-2-yl)-4H-1,2,4-triazol-3-yl)-1-methoxypropane-2-sulfonamide] | 0.13 nM |
| CC[C@H](c1cc(F)cc(F)c1)n1c(NS(=O)(=O)[C@@H](C)[C@H](OC)c2ncc(Cl)cn2)nnc1-c1cccc(OC)n1 (single isomer, unassigned) [Example 342.0, (1R,2S)-1-(5-chloropyrimidin-2-yl)-N-(4-((R)-1-(3,5-difluorophenyl)propyl)-5-(6-methoxypyridin-2-yl)-4H-1,2,4-triazol-3-yl)-1-methoxypropane-2-sulfonamide or (1R,2S)-1-(5-chloropyrimidin-2-yl)-N-(4-((S)-1-(3,5-difluorophenyl)propyl)-5-(6-methoxypyridin-2-yl)-4H-1,2,4-triazol-3-yl)-1-methoxypropane-2-sulfonamide] | 0.05 nM |
| CC[C@H](c1cc(F)cc(F)c1)n1c(NS(=O)(=O)[C@@H](C)[C@H](OC)c2ncc(Cl)cn2)nnc1-c1cccc(OC)n1 (single isomer, unassigned) [Example 343.0, (1R,2S)-1-(5-chloropyrimidin-2-yl)-N-(4-((R)-1-(3,5-difluorophenyl)propyl)-5-(6-methoxypyridin-2-yl)-4H-1,2,4-triazol-3-yl)-1-methoxypropane-2-sulfonamide or (1R,2S)-1-(5-chloropyrimidin-2-yl)-N-(4-((S)-1-(3,5-difluorophenyl)propyl)-5-(6-methoxypyridin-2-yl)-4H-1,2,4-triazol-3-yl)-1-methoxypropane-2-sulfonamide] | 0.1 nM |
| COc1cccc(-c2nnc(NS(=O)(=O)[C@@H](C)[C@H](OC)c3ncc(Cl)cn3)n2[C@H](C)c2cscn2)n1 (single isomer, unassigned) [Example 344.0, (1R,2S)-1-(5-chloropyrimidin-2-yl)-1-methoxy-N-(5-(6-methoxypyridin-2-yl)-4-((S)-1-(thiazol-4-yl)ethyl)-4H-1,2,4-triazol-3-yl)propane-2-sulfonamide or (1R,2S)-1-(5-chloropyrimidin-2-yl)-1-methoxy-N-(5-(6-methoxypyridin-2-yl)-4-((R)-1-(thiazol-4-yl)ethyl)-4H-1,2,4-triazol-3-yl)propane-2-sulfonamide] | 7.1 nM |
| COc1cccc(-c2nnc(NS(=O)(=O)[C@@H](C)[C@H](OC)c3ncc(Cl)cn3)n2[C@H](C)c2cscn2)n1 (single isomer, unassigned) [Example 345.0, (1R,2S)-1-(5-chloropyrimidin-2-yl)-1-methoxy-N-(5-(6-methoxypyridin-2-yl)-4-((S)-1-(thiazol-4-yl)ethyl)-4H-1,2,4-triazol-3-yl)propane-2-sulfonamide or (1R,2 S)-1-(5-chloropyrimidin-2-yl)-1-methoxy-N-(5-(6-methoxypyridin-2-yl)-4-((R)-1-(thiazol-4-yl)ethyl)-4H-1,2,4-triazol-3-yl)propane-2-sulfonamide] | 1.1 nM |
| COc1cccc(-c2nnc(NS(=O)(=O)[C@@H](C)[C@H](OC)c3ncc(Cl)cn3)n2[C@H](C)c2cncs2)n1 (single isomer, unassigned) [Example 346.0, (1R,2S)-1-(5-chloropyrimidin-2-yl)-1-methoxy-N-(5-(6-methoxypyridin-2-yl)-4-((R)-1-(thiazol-5-yl)ethyl)-4H-1,2,4-triazol-3-yl)propane-2-sulfonamide or (1R,2S)-1-(5-chloropyrimidin-2-yl)-1-methoxy-N-(5-(6-methoxypyridin-2-yl)-4-((S)-1-(thiazol-5-yl)ethyl)-4H-1,2,4-triazol-3-yl)propane-2-sulfonamide] | 4.4 nM |
| COc1cccc(-c2nnc(NS(=O)(=O)[C@@H](C)[C@H](OC)c3ncc(Cl)cn3)n2[C@H](C)c2cncs2)n1 (single isomer, unassigned) [Example 347.0, (1R,2S)-1-(5-chloropyrimidin-2-yl)-1-methoxy-N-(5-(6-methoxypyridin-2-yl)-4-((R)-1-(thiazol-5-yl)ethyl)-4H-1,2,4-triazol-3-yl)propane-2-sulfonamide or (1R,2S)-1-(5-chloropyrimidin-2-yl)-1-methoxy-N-(5-(6-methoxypyridin-2-yl)-4-((S)-1-(thiazol-5-yl)ethyl)-4H-1,2,4-triazol-3-yl)propane-2-sulfonamide] | 0.48 nM |
| COc1cccc(-c2nnc(NS(=O)(=O)[C@@H](C)[C@H](OC)c3ncc(Cl)cn3)n2[C@H](C)c2cncc(F)c2)n1 (single isomer, unassigned) [Example 348.0, (1R,2S)-1-(5-chloropyrimidin-2-yl)-N-(4-((R)-1-(5-fluoropyridin-3-yl)ethyl)-5-(6-methoxypyridin-2-yl)-4H-1,2,4-triazol-3-yl)-1-methoxypropane-2-sulfonamide or (1R,2S)-1-(5-chloropyrimidin-2-yl)-N-(4-((S)-1-(5-fluoropyridin-3-yl)ethyl)-5-(6-methoxypyridin-2-yl)-4H-1,2,4-triazol-3-yl)-1-methoxypropane-2-sulfonamide] | 1.34 nM |
| COc1cccc(-c2nnc(NS(=O)(=O)[C@@H](C)[C@H](OC)c3ncc(Cl)cn3)n2[C@H](C)c2cncc(F)c2)n1 (single isomer, unassigned) [Example 349.0, (1R,2S)-1-(5-chloropyrimidin-2-yl)-N-(4-((R)-1-(5-fluoropyridin-3-yl)ethyl)-5-(6-methoxypyridin-2-yl)-4H-1,2,4-triazol-3-yl)-1-methoxypropane-2-sulfonamide or (1R,2S)-1-(5-chloropyrimidin-2-yl)-N-(4-((S)-1-(5-fluoropyridin-3-yl)ethyl)-5-(6-methoxypyridin-2-yl)-4H-1,2,4-triazol-3-yl)-1-methoxypropane-2-sulfonamide] | 0.43 nM |
| COc1cccc(-c2nnc(NS(=O)(=O)[C@@H](C)[C@H](OC)c3ncc(Cl)cn3)n2[C@H](C)c2cccnc2)n1 (single isomer, unassigned) [Example 350.0, (1R,2S)-1-(5-chloropyrimidin-2-yl)-1-methoxy-N-(5-(6-methoxypyridin-2-yl)-4-((R)-1-(pyridin-3-yl)ethyl)-4H-1,2,4-triazol-3-yl)propane-2-sulfonamide or (1R,2S)-1-(5-chloropyrimidin-2-yl)-1-methoxy-N-(5-(6-methoxypyridin-2-yl)-4-((S)-1-(pyridin-3-yl)ethyl)-4H-1,2,4-triazol-3-yl)propane-2-sulfonamide] | 7.84 nM |
| COc1cccc(-c2nnc(NS(=O)(=O)[C@@H](C)[C@H](OC)c3ncc(Cl)cn3)n2[C@H](C)c2cccnc2)n1 (single isomer, unassigned) [Example 351.0, (1R,2S)-1-(5-chloropyrimidin-2-yl)-1-methoxy-N-(5-(6-methoxypyridin-2-yl)-4-((R)-1-(pyridin-3-yl)ethyl)-4H-1,2,4-triazol-3-yl)propane-2-sulfonamide or (1R,2S)-1-(5-chloropyrimidin-2-yl)-1-methoxy-N-(5-(6-methoxypyridin-2-yl)-4-((S)-1-(pyridin-3-yl)ethyl)-4H-1,2,4-triazol-3-yl)propane-2-sulfonamide] | 0.36 nM |
| COCCn1c(NS(=O)(=O)[C@H](C)[C@@H](C)c2ncc(Cl)cn2)nnc1-c1cccnc1 (stereo in doubt) [Example 18.0, (2R,3S)-3-(5-chloro-2-pyrimidinyl)-N-(4-(2-methoxyethyl)-5-(3-pyridinyl)-4H-1,2,4-triazol-3-yl)-2-butanesulfonamide] | 250 nM |
| COc1cccc(-c2nnc(NS(=O)(=O)[C@@H](C)[C@H](OC)c3ncc(Cl)cn3)n2[C@@H]2CCC23CCC3)n1 (stereo in doubt) [Example 56.0] | 1.9 nM |
